Where two headings read alike, the source gives them in different places. Positions of bridges follow the written chain, without caps; N, C: chain ends. Residues, ends and D or L forms follow the SMILES beside them.
Key:
[1] = tested on: Escherichia coli (ATCC 25922); type: cell-based
How it was run: (§1)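 MIC was taken as the lowest concentration inhibiting growth, judged by visual or spectrophotometric turbidity. MBC was the lowest concentration reducing viability of the initial inoculum by ≥99.9%. Strains were clinically reported multi-drug-resistant isolates.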

[2] = tested on: Klebsiella pneumoniae (ATCC BAA-1705); type: cell-based
How it was run: as §1

[3] = tested on: Methicillin-resistant Staphylococcus aureus MRSA (ATCC BAA-1556); type: cell-based
How it was run: as §1

[4] = tested on: Pseudomonas aeruginosa (ATCC 27883); type: cell-based; settings: ATCC 27883
How it was run: as §1

[5] = tested on: Methicillin-resistant Staphylococcus aureus MRSA (ATCC BAA-1556); settings: ATCC BAA-1556
[6] = tested on: Pseudomonas aeruginosa (ATCC 27883); settings: ATCC 27883
[7] = tested on: Escherichia coli (ATCC 25922); settings: ATCC 25922
[8] = tested on: Klebsiella pneumoniae (ATCC BAA-1705); settings: ATCC BAA-1705
[9] = tested on: Pseudomonas aeruginosa (ATCC 10145)
[10] = tested on: Pseudomonas aeruginosa (PSA, ATCC 27883); test: Synergy checkerboard assay (FIC index); type: cell-based; settings: Pseudomonas aeruginosa (ATCC 27883), antibiotic alone
[11] = tested on: Methicillin-resistant Staphylococcus aureus MRSA (ATCC BAA-1556)
[12] = tested on: Pseudomonas aeruginosa (PSA, ATCC 27883)
[13] = tested on: Klebsiella pneumoniae (KPC, ATCC BAA-1705)
[14] = tested on: Escherichia coli (E. Coli, ATCC 25922)
[15] = tested on: Klebsiella pneumoniae (KPC, ATCC BAA-1705); settings: Klebsiella pneumoniae (ATCC BAA-1705), antibiotic alone
[16] = tested on: Escherichia coli (E. Coli, ATCC 25922); settings: Escherichia coli (ATCC 25922), antibiotic alone
[17] = tested on: Klebsiella pneumoniae ATCC 13883; settings: Klebsiella pneumonia (ATCC 13883)
[18] = tested on: Escherichia coli (ATCC BAA-2452); settings: Escherichia coli (ATCC BAA-2452)
[19] = tested on: Acinetobacter baumannii (ATCC BAA-1605); settings: Acinetobacter baumannii (ATCC BAA-1605)
[20] = tested on: Pseudomonas aeruginosa (ATCC BAA-1744); settings: Pseudomonas aeruginosa (ATCC BAA-1744)
[21] = Table 28, IFX-031, antibiotics alone and PHY-MIX (1:1 w/w)
[22] = Table 29, [R6W4] (IFX-318), antibiotics alone and PHY-MIX (1:1 w/w)
[23] = Table 30, [R5W4K] (IFX-315), antibiotics alone and PHY-MIX (1:1 w/w)
[24] = Table 31, [R5W4] (IFX-301), antibiotics alone and PHY-MIX (1:1 w/w)

N=C(N)NCCC[C@@H]1NC(=O)[C@H](CCCNC(=N)N)NC(=O)[C@H](CCCNC(=N)N)NC(=O)[C@@H]2CSSC[C@H](NC(=O)[C@H](CCCNC(=N)N)NC1=O)C(=O)N[C@@H](Cc1c[nH]c3ccccc13)C(=O)N[C@@H](Cc1c[nH]c3ccccc13)C(=O)N[C@@H](Cc1c[nH]c3ccccc13)C(=O)N[C@@H](Cc1c[nH]c3ccccc13)C(=O)N2 [IFX-330] (cyclo(RRRCWWWWCR); disulfide 4-9)
64 µg/mL: E. coli (ATCC 25922) MBC [1]
32 µg/mL: MRSA (ATCC BAA-1556) MBC [3] | E. coli (ATCC 25922) MIC [7] | KPC (ATCC BAA-1705) MIC [8]
128 µg/mL: KPC (ATCC BAA-1705) MBC [2] | PSA (ATCC 27883 MIC) [6]
8 µg/mL: MRSA (ATCC BAA-1556) MIC [5]
256 µg/mL: PSA (ATCC 27883) MBC [4]

N=C(N)NCCC[C@@H]1NC(=O)[C@H](CCCNC(=N)N)NC(=O)[C@H](CCCNC(=N)N)NC(=O)[C@H](CCCNC(=N)N)NC(=O)[C@H](Cc2c[nH]c3ccccc23)NC(=O)[C@H](Cc2c[nH]c3ccccc23)NC(=O)[C@H](Cc2c[nH]c3ccccc23)NC(=O)[C@H](Cc2c[nH]c3ccccc23)NC(=O)[C@H](CCCNC(=N)N)NC(=O)[C@H](CCCNC(=N)N)NC1=O [[R6W4] IFX-301] (cyclo(RRRRRRWWWW))
64 µg/mL: MIC (KPC)
16 µg/mL: MIC (PSA)
32 µg/mL: MIC (E. coli) | MIC ([9]; ATCC 10145)

N=C(N)NCCC[C@@H]1NC(=O)[C@H](CCCNC(=N)N)NC(=O)[C@H](CCCNC(=N)N)NC(=O)[C@H](CCCNC(=N)N)NC(=O)[C@@H](N)CSSC[C@@H](C(=O)O)NC(=O)[C@H](Cc2c[nH]c3ccccc23)NC(=O)[C@H](Cc2c[nH]c3ccccc23)NC(=O)[C@H](Cc2c[nH]c3ccccc23)NC(=O)[C@H](Cc2c[nH]c3ccccc23)NC1=O [IFX-327] (H-CRRRRWWWWC-OH; disulfide 1-10)
256 µg/mL: E. coli (ATCC 25922) MIC [7] | KPC (ATCC BAA-1705) MIC [8]
32 µg/mL: MRSA (ATCC BAA-1556) MIC [5]
64 µg/mL: MRSA (ATCC BAA-1556) MBC [3]
512 µg/mL: E. coli (ATCC 25922) MBC [1] | KPC (ATCC BAA-1705) MBC [2] | PSA (ATCC 27883) MBC [4] | PSA (ATCC 27883 MIC) [6]

Polymyxin
1 µg/mL: MIC of antibiotic ([10]; Table 25) | MIC of antibiotic ([10]; Table 26) | antibiotic MIC ([10]; Table 27) | Pseudomonas aeruginosa (ATCC 27883) MIC [12, 21] | Pseudomonas aeruginosa (ATCC 27883) MIC [12, 22] | Pseudomonas aeruginosa (ATCC 27883) MIC [12, 23] | Pseudomonas aeruginosa (ATCC 27883) MIC [12, 24] | Klebsiella pneumoniae (ATCC BAA-1705) MIC [13, 21] | Klebsiella pneumoniae (ATCC BAA-1705) MIC [13, 22] | Klebsiella pneumoniae (ATCC BAA-1705) MIC [13, 23] | Klebsiella pneumoniae (ATCC BAA-1705) MIC [13, 24] | MIC of antibiotic [15] | MIC of antibiotic ([15]; Table 25) | MIC of antibiotics ([15]; Table 26) | MIC ([17]; Table 35) | MIC ([17]; Table 36) | MIC (PSA; Table 35, P. aeruginosa ATCC 27883) | MIC (PSA; Table 36, P. aeruginosa ATCC 27883) | MIC ([18]; Table 35) | MIC ([18]; Table 36) | MIC ([19]; Table 35) | MIC ([19]; Table 36)
2 µg/mL: Escherichia coli (ATCC 25922) MIC [14, 21] | Escherichia coli (ATCC 25922) MIC [14, 22] | Escherichia coli (ATCC 25922) MIC [14, 23] | Escherichia coli (ATCC 25922) MIC [14, 24] | MIC of antibiotic [16] | MIC of antibiotic ([16]; Table 25) | MIC of antibiotic ([16]; Table 26) | Polymyxin MIC ([16]; Table 27) | MIC (E. coli; Table 35, E. coli ATCC 25922) | MIC (E. coli; Table 36, E. coli ATCC 25922) | MIC ([9]; Table 35, Pseudomonas aeruginosa (ATCC 10145)) | MIC ([9]; Table 36, Pseudomonas aeruginosa (ATCC 10145)) | MIC ([20]; Table 35) | MIC ([20]; Table 36)
0.5 µg/mL: Polymyxin MIC ([15]; Table 27) | MIC (KPC; Table 35, Klebsiella pneumoniae (ATCC BAA-1705)) | MIC (KPC; Table 36, Klebsiella pneumoniae (ATCC BAA-1705))
64 µg/mL: MRSA (ATCC BAA-1556) MIC [11, 21] | MRSA (ATCC BAA-1556) MIC [11, 22] | MRSA (ATCC BAA-1556) MIC [11, 23] | MRSA (ATCC BAA-1556) MIC [11, 24]

N=C(N)NCCC[C@@H]1NC(=O)[C@H](CS)NC(=O)[C@H](Cc2c[nH]c3ccccc23)NC(=O)[C@H](Cc2c[nH]c3ccccc23)NC(=O)[C@H](Cc2c[nH]c3ccccc23)NC(=O)[C@H](Cc2c[nH]c3ccccc23)NC(=O)[C@H](CS)NC(=O)[C@H](CCCNC(=N)N)NC(=O)[C@H](CCCNC(=N)N)NC(=O)[C@H](CCCNC(=N)N)NC1=O [IFX-329] (cyclo(RRRCWWWWCR))
128 µg/mL: PSA (ATCC 27883) MBC [4] | PSA (ATCC 27883 MIC) [6]
8 µg/mL: MRSA (ATCC BAA-1556) MIC [5]
32 µg/mL: KPC (ATCC BAA-1705) MBC [2] | MRSA (ATCC BAA-1556) MBC [3] | E. coli (ATCC 25922) MIC [7] | KPC (ATCC BAA-1705) MIC [8]
64 µg/mL: E. coli (ATCC 25922) MBC [1]

N=C(N)NCCC[C@H](NC(=O)[C@H](CCCNC(=N)N)NC(=O)[C@H](CCCNC(=N)N)NC(=O)[C@H](CCCNC(=N)N)NC(=O)[C@@H](N)CS)C(=O)N[C@@H](Cc1c[nH]c2ccccc12)C(=O)N[C@@H](Cc1c[nH]c2ccccc12)C(=O)N[C@@H](Cc1c[nH]c2ccccc12)C(=O)N[C@@H](Cc1c[nH]c2ccccc12)C(=O)N[C@@H](CS)C(=O)O [IFX-328] (H-CRRRRWWWWC-OH)
512 µg/mL: E. coli (ATCC 25922) MBC [1] | PSA (ATCC 27883) MBC [4] | PSA (ATCC 27883 MIC) [6]
64 µg/mL: MRSA (ATCC BAA-1556) MIC [5]
256 µg/mL: E. coli (ATCC 25922) MIC [7]
16 µg/mL: KPC (ATCC BAA-1705) MIC [8]
128 µg/mL: MRSA (ATCC BAA-1556) MBC [3]
32 µg/mL: KPC (ATCC BAA-1705) MBC [2]

Source: patent US20220289794A1, “SYNTHETIC ANTIMICROBIAL PEPTIDES” (priority 2019, published 2022)
